Publication PMC5847526, “Inhibition of neuronal FLT3 receptor tyrosine kinase alleviates peripheral neuropathic pain in mice” (Nature Communications, 2018)

Experiments:
Assay in all cases: biochemical
Design in all cases: ExpresS Diversity kinase profile (Eurofins Cerep P10), per cent inhibition
Conditions in all cases: read-out: Inhibition of reference binding (Table 4)
[1] = biological target: PLK1 (Homo sapiens, UniProt P53350)
[2] = biological target: KDR (Homo sapiens, UniProt P35968)
[3] = biological target: T1, TRKA (Homo sapiens, UniProt P04629)
T1 construct: gene NTRK1

[4] = biological target: EphA3 kinase (Homo sapiens, UniProt P29320)
[5] = biological target: CDK2 (Homo sapiens, UniProt P24941)
[6] = biological target: T2, CHK2 (Homo sapiens, UniProt O96017)
T2 construct: gene CHEK2

[7] = biological target: CDC2/CDK1 (Homo sapiens, UniProt P06493)
[8] = biological target: Src kinase (Homo sapiens, UniProt P12931)
[9] = biological target: Akt1/PKBα (Homo sapiens, UniProt P31749)
[10] = biological target: T3, RAF-1 kinase (Homo sapiens, UniProt P04049)
T3 construct: gene RAF1

[11] = biological target: TAOK2 (Homo sapiens, UniProt Q9UL54)
[12] = biological target: PAK4 (Homo sapiens, UniProt O96013)
[13] = biological target: PAK2 (Homo sapiens, UniProt Q13177)
[14] = biological target: T4, CHK1 (Homo sapiens, UniProt O14757)
T4 construct: gene CHEK1

[15] = biological target: Lck kinase (Homo sapiens, UniProt P06239)
[16] = biological target: MARK1 (Homo sapiens, UniProt Q9P0L2)
[17] = biological target: T5, JNK1 (Homo sapiens, UniProt P45983)
T5 construct: gene MAPK8

[18] = biological target: FGFR1 kinase (Homo sapiens, UniProt P11362)
[19] = biological target: ROCK1 (Homo sapiens, UniProt Q13464)
[20] = biological target: T6, Abl kinase (Homo sapiens, UniProt P00519)
T6 construct: gene ABL1

[21] = biological target: c-Met kinase (Homo sapiens, UniProt P08581)
[22] = biological target: T7, CaMK2α (Homo sapiens, UniProt Q9UQM7)
T7 construct: gene CAMK2A

[23] = biological target: T8, GSK3β (Homo sapiens, UniProt P49841)
T8 construct: gene GSK3B

[24] = biological target: c-KIT (Homo sapiens, UniProt P10721)
[25] = biological target: T9, PKA (Homo sapiens, UniProt P17612)
T9 construct: gene PRKACA

[26] = biological target: T10, MNK2 (Homo sapiens, UniProt Q9HBH9)
T10 construct: gene MKNK2

[27] = biological target: FGFR2 kinase (Homo sapiens, UniProt P21802)
[28] = biological target: T11, IRK (Homo sapiens, UniProt P06213)
T11 construct: gene INSR; insulin receptor kinase

Chain of PAK4 (O96013 whole entry): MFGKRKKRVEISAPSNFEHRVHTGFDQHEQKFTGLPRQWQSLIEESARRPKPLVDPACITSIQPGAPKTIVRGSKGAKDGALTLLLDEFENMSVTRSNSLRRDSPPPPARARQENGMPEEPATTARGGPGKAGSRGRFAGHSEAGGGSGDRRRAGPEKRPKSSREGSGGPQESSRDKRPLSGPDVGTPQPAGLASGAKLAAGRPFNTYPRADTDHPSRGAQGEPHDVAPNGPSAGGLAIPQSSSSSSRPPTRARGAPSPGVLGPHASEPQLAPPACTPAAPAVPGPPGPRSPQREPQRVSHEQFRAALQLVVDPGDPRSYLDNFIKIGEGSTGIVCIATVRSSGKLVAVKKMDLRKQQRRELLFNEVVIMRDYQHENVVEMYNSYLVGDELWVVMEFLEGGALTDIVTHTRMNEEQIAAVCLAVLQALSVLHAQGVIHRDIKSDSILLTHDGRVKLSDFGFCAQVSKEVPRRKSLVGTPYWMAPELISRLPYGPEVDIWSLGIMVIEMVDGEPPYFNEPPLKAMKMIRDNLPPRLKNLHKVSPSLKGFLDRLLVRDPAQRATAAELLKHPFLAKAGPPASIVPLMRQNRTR
T8 sequence (P49841 whole entry): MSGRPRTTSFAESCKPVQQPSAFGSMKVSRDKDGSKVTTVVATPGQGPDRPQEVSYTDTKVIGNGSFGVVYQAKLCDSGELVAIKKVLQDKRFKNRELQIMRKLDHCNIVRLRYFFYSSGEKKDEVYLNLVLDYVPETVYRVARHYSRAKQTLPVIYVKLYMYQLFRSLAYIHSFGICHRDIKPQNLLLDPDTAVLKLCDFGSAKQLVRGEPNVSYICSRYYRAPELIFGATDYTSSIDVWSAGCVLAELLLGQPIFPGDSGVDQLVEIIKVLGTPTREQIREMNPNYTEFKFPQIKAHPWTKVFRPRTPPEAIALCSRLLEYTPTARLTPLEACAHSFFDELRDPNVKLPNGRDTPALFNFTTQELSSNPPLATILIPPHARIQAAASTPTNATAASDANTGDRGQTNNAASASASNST
Chain of PAK2 (Q13177 whole entry): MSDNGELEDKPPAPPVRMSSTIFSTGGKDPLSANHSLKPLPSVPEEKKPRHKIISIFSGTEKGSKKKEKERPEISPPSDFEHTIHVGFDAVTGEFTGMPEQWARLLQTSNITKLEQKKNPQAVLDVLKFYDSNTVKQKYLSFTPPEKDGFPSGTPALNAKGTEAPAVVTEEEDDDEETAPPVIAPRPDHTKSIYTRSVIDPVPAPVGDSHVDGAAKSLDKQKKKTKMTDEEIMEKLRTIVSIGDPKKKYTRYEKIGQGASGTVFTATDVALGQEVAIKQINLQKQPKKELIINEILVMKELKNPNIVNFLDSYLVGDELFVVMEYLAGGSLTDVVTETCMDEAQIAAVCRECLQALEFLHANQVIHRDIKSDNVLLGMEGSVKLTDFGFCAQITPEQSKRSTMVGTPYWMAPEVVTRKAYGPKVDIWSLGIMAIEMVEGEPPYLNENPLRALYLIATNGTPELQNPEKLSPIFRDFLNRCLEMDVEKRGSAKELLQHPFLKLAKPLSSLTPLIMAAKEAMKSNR
Chain of EphA3 kinase (P29320 whole entry): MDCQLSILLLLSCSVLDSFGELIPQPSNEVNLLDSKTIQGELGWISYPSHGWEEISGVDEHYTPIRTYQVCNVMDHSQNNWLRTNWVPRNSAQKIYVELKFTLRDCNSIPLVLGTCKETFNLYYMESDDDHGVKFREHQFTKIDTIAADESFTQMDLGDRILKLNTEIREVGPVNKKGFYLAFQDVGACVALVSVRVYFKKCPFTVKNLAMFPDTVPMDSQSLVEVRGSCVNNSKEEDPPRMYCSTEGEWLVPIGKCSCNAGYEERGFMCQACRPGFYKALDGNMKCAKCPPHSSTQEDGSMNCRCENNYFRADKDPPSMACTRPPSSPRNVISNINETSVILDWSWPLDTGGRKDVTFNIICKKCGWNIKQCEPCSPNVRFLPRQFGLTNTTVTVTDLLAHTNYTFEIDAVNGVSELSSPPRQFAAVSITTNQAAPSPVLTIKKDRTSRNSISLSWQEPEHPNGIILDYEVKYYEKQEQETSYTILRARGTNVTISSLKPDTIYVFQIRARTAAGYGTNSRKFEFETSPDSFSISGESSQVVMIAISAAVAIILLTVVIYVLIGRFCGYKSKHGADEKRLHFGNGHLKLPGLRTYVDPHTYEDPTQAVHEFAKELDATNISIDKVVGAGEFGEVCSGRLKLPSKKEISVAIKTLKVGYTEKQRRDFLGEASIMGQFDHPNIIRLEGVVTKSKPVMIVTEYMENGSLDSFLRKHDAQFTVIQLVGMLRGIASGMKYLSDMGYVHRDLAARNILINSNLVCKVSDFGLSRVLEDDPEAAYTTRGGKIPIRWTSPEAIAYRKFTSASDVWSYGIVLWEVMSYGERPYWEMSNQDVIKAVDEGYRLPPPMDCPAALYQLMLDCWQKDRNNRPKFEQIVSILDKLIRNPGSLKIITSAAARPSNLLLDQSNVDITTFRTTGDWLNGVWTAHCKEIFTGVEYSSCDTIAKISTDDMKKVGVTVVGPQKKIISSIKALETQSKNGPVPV
Chain of PLK1 (P53350 whole entry): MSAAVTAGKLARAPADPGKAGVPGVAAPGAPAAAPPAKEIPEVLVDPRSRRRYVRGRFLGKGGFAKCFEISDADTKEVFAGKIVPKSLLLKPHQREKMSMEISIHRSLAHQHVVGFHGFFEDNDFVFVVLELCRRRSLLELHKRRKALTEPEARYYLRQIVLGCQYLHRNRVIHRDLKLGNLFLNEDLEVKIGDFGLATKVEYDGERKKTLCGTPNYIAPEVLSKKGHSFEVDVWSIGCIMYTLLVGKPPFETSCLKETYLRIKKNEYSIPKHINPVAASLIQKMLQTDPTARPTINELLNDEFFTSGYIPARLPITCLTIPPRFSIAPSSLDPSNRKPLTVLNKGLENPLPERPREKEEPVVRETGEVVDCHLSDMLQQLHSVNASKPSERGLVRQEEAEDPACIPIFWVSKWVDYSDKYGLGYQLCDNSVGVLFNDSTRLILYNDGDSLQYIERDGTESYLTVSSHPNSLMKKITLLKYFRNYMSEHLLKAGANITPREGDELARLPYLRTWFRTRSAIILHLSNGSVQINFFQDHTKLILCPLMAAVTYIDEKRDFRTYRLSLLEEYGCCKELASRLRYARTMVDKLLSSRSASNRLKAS
Chain of ROCK1 (Q13464 whole entry): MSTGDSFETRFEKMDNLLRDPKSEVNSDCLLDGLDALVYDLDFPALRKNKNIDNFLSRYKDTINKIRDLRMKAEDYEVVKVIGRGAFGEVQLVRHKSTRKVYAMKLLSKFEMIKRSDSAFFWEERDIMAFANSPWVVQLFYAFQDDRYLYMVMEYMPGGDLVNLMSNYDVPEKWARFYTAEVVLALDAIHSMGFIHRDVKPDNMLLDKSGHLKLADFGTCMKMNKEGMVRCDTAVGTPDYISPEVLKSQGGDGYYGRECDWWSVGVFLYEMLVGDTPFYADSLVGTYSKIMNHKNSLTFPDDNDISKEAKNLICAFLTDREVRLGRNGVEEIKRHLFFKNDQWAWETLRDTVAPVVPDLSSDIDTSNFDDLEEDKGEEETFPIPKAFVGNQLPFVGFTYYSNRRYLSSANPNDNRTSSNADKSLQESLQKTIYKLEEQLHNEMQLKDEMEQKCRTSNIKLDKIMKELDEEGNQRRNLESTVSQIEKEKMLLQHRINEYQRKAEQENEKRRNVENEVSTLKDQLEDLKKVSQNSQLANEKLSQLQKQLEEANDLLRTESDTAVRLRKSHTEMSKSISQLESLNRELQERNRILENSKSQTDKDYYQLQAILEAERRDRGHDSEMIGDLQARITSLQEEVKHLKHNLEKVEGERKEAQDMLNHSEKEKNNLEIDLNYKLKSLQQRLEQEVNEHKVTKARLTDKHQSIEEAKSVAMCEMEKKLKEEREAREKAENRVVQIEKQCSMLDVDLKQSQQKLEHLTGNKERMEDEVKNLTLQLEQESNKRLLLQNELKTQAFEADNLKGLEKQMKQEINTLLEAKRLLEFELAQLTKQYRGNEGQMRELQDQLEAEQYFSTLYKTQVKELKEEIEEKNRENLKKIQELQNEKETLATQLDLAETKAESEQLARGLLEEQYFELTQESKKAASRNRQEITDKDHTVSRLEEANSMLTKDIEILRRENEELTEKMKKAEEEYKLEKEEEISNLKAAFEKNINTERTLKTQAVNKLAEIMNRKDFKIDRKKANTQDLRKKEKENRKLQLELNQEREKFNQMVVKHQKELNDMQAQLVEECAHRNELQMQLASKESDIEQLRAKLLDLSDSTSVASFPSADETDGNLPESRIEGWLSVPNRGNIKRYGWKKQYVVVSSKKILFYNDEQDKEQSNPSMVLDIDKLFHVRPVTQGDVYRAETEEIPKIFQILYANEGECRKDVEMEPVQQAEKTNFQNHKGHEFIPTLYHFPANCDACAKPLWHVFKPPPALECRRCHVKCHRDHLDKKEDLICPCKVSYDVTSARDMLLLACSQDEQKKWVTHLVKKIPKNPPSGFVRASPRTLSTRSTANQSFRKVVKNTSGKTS
T2 sequence (O96017 whole entry): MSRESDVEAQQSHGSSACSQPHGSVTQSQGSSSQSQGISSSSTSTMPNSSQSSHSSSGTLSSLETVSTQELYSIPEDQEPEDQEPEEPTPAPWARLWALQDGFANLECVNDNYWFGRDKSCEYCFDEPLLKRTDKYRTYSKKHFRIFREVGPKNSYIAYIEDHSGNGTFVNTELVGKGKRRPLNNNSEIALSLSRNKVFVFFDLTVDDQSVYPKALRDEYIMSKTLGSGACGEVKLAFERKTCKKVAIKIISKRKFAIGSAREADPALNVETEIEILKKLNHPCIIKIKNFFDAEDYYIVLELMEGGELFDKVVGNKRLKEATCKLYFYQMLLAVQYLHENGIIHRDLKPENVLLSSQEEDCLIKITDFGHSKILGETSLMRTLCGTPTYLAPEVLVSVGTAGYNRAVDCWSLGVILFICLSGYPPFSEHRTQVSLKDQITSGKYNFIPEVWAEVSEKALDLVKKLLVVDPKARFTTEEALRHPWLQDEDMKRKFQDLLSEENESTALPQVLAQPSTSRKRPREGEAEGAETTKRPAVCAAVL

**Q.** `O=C(Nc1cc(Cl)ccc1O)c1cccc(S(=O)(=O)N2CCCCC2)c1` [compound 66, BDT001] was tested. Which inhibition at 10 µM [1] did it give?
**A.** Its inhibition at 10 µM is -5%.

**Q.** What about the inhibition at 10 µM [2] of the same compound?
**A.** The inhibition at 10 µM was -6%.

**Q.** And the inhibition at 10 µM [3]?
**A.** Its inhibition at 10 µM is 0%.

**Q.** And the inhibition at 10 µM [4]?
**A.** The inhibition at 10 µM was 0%.

**Q.** What about the inhibition at 10 µM [5] of the same compound?
**A.** The inhibition at 10 µM was 33%.

**Q.** What about the inhibition at 10 µM [6] of the same compound?
**A.** The inhibition at 10 µM was 6%.

**Q.** And the inhibition at 10 µM [7]?
**A.** The inhibition at 10 µM was 26%.

**Q.** And the inhibition at 10 µM [8]?
**A.** Its inhibition at 10 µM is -4%.

**Q.** And the inhibition at 10 µM [9]?
**A.** The inhibition at 10 µM was -13%.

**Q.** And the inhibition at 10 µM [10]?
**A.** The inhibition at 10 µM was 11%.

**Q.** What about the inhibition at 10 µM [11] of the same compound?
**A.** Its inhibition at 10 µM is 33%.

**Q.** What about the inhibition at 10 µM [12] of the same compound?
**A.** Its inhibition at 10 µM is 6%.

**Q.** And the inhibition at 10 µM [13]?
**A.** Its inhibition at 10 µM is -8%.

**Q.** And the inhibition at 10 µM [14]?
**A.** The inhibition at 10 µM was -10%.

**Q.** And the inhibition at 10 µM [15]?
**A.** The inhibition at 10 µM was -14%.

**Q.** And the inhibition at 10 µM [16]?
**A.** Its inhibition at 10 µM is 13%.

**Q.** What about the inhibition at 10 µM [17] of the same compound?
**A.** Its inhibition at 10 µM is 32%.

**Q.** And the inhibition at 10 µM [18]?
**A.** Its inhibition at 10 µM is -7%.

**Q.** What about the inhibition at 10 µM [19] of the same compound?
**A.** The inhibition at 10 µM was 2%.

**Q.** What about the inhibition at 10 µM [20] of the same compound?
**A.** The inhibition at 10 µM was 16%.

**Q.** What about the inhibition at 10 µM [21] of the same compound?
**A.** Its inhibition at 10 µM is 0%.

**Q.** And the inhibition at 10 µM [22]?
**A.** The inhibition at 10 µM was 6%.

**Q.** And the inhibition at 10 µM [23]?
**A.** The inhibition at 10 µM was 0%.

**Q.** And the inhibition at 10 µM [24]?
**A.** The inhibition at 10 µM was -1%.

**Q.** What about the inhibition at 10 µM [25] of the same compound?
**A.** Its inhibition at 10 µM is 7%.

**Q.** And the inhibition at 10 µM [26]?
**A.** The inhibition at 10 µM was -7%.

**Q.** What about the inhibition at 10 µM [27] of the same compound?
**A.** Its inhibition at 10 µM is -2%.

**Q.** And the inhibition at 10 µM [28]?
**A.** Its inhibition at 10 µM is -4%.
